Laboratory results from US11174291B2, “Silstatin compounds” (Arizona Board of Regents on behalf of Arizona State …, priority 2015, dated 2021).

Assays:
Type in all cases: cell-based, human
NCI-H460 = experiment: NCI sulforhodamine B growth inhibition, lung cancer cells; conditions: 48 h
Procedure: (§1) Inhibition of human cancer cell growth was assessed using the National Cancer Institute's standard sulforhodamine B assay as previously described.^19In summary, cells in a 5% fetal bovine serum/RPMI1640 medium were inoculated in 96-well plates and incubated for 24 hrs. Next, serial dilutions of the compounds were added. After 48 h, the plates were fixed with trichloroacetic acid, stained with sulforhodamine B, and read with an automated microplate reader. A growth inhibition of 50% (GI50 or the drug concentration causing a 50% reduction in the net protein increase) was calcd from optical density data with Immunosoft software. Normal cells were treated in identical conditions. Normal human prostate CRL-2221 (PZ—HPV-7) was grown in MEM 10% FBS and normal human breast MCF-10A in MEGM kit.

SF268 = experiment: NCI sulforhodamine B growth inhibition, CNS cancer cells; conditions: 48 h
Procedure: as §1

[1] = test system: mini panel of cancer cell lines; experiment: Growth inhibition across the mini panel of cancer cell lines; conditions: mini panel of cancer cell lines (Table 1)
Procedure: as §1
The growth inhibition property of the silstatins and some intermediates were evaluated against a mini panel of cancer cell lines (Table 1).

KM20L2 = experiment: NCI sulforhodamine B growth inhibition, colon cancer cells; conditions: 48 h
Procedure: as §1

BXPC-3 = experiment: NCI sulforhodamine B growth inhibition, pancreas cancer cells; conditions: BXPC3 pancreas, 48 h
Procedure: as §1

MCF-7 = experiment: NCI sulforhodamine B growth inhibition, breast cancer cells; conditions: MCF-7 breast, 48 h
Procedure: as §1

DU-145 = experiment: NCI sulforhodamine B growth inhibition, prostate cancer cells; conditions: DU145 prostate, 48 h
Procedure: as §1

| SMILES | Growth inhibition of human cancer cell lines GI50 (NCI-H460) [µg/mL] | Growth inhibition of human cancer cell lines GI50 (SF268) [µg/mL] | Cancer cell growth inhibition, assessment in words [1] | Growth inhibition of human cancer cell lines GI50 (KM20L2) [µg/mL] | Growth inhibition of human cancer cell lines GI50 (BXPC-3) [µg/mL] | Growth inhibition of human cancer cell lines GI50 (MCF-7) [µg/mL] | Growth inhibition of human cancer cell lines GI50 (DU-145) [µg/mL] |
| --- | --- | --- | --- | --- | --- | --- | --- |
| CC(C)C[C@H]1OC(=O)[C@H](C(C)C)NC(=O)[C@H](C)OC(=O)[C@@H](C(C)C)NC(=O)[C@@H](CC(C)C)OC(=O)[C@H](C(C)C)NC(=O)[C@H](C)OC(=O)[C@@H](C(C)C)NC(=O)[C@@H](CC(C)C)OC(=O)[C@H](C(C)C)NC(=O)[C@H](C)OC(=O)[C@@H](C(C)C)NC1=O [Silstatin 1 (7a), Cyclo-[Val-D-Hica-D-Val-Lac]3] | 0.0007 | 0.00021 | did not affect its high potency | 0.00016 | 0.0008 | 0.00011 | 0.00042 |
| CC(C)C[C@H]1OC(=O)[C@H](C(C)C)NC(=O)[C@H](C)OC(=O)[C@@H](C(C)C)NC(=O)[C@@H](CC(C)C)OC(=O)[C@H]([C@@H](C)O)NC(=O)[C@H](C)OC(=O)[C@@H](C(C)C)NC(=O)[C@@H](CC(C)C)OC(=O)[C@H](C(C)C)NC(=O)[C@H](C)OC(=O)[C@@H](C(C)C)NC1=O [Silstatin 2 (8a), Cyclo-{Thr-D-Hica-D-Val-Lac-[Val-D-Hica-D-Val-Lac]2}] | 0.0032 | 0.0031 | somewhat decreased activity | 0.0033 | 0.004 | 0.0022 | 0.006 |
| CC(C)C[C@H]1OC(=O)[C@H](Cc2ccc(O)cc2)NC(=O)[C@H](C)OC(=O)[C@@H](C(C)C)NC(=O)[C@@H](CC(C)C)OC(=O)[C@H](C(C)C)NC(=O)[C@H](C)OC(=O)[C@@H](C(C)C)NC(=O)[C@@H](CC(C)C)OC(=O)[C@H](C(C)C)NC(=O)[C@H](C)OC(=O)[C@@H](C(C)C)NC1=O [Silstatin 3 (8b), Cyclo-{Tyr-D-Hica-D-Val-Lac-[Val-D-Hica-D-Val-Lac]2}] | 0.0037 | 0.004 | somewhat decreased activity | 0.0011 | 0.005 | 0.0016 | 0.0051 |
| CC(C)[C@@H]1NC(=O)[C@H](C)OC(=O)[C@@H](C(C)C)NC(=O)[C@@H](CC2CCCCC2)OC(=O)[C@H](C(C)C)NC(=O)[C@H](C)OC(=O)[C@@H](C(C)C)NC(=O)[C@@H](CC2CCCCC2)OC(=O)[C@H](C(C)C)NC(=O)[C@H](C)OC(=O)[C@@H](C(C)C)NC(=O)[C@@H](CC2CCCCC2)OC1=O [Silstatin 4 (14a), Cyclo-[Val-D-Hcha-D-Val-Lac]3] | 0.4 | 0.081 | marked reduction of cancer cell growth inhibition capability | 0.18 | 0.5 | 0.18 | 0.22 |
| CC(C)[C@@H]1NC(=O)[C@H](C)OC(=O)[C@@H](C(C)C)NC(=O)[C@@H](CC2CCCCC2)OC(=O)[C@H]([C@@H](C)O)NC(=O)[C@H](C)OC(=O)[C@@H](C(C)C)NC(=O)[C@@H](CC2CCCCC2)OC(=O)[C@H](C(C)C)NC(=O)[C@H](C)OC(=O)[C@@H](C(C)C)NC(=O)[C@@H](CC2CCCCC2)OC1=O [Silstatin 5 (15a), Cyclo-{Thr-D-Hcha-D-Val-Lac-[Val-D-Hcha-D-Val-Lac]2}] | 0.021 | 0.0044 | very high inhibitory activity | 0.0044 | 0.03 | 0.0031 | 0.005 |
| CC(C)[C@@H]1NC(=O)[C@H](C)OC(=O)[C@@H](C(C)C)NC(=O)[C@@H](CC2CCCCC2)OC(=O)[C@H](C(C)C)NC(=O)[C@H](C)OC(=O)[C@@H](C(C)C)NC(=O)[C@@H](CC2CCCCC2)OC(=O)[C@H](Cc2ccc(O)cc2)NC(=O)[C@H](C)OC(=O)[C@@H](C(C)C)NC(=O)[C@@H](CC2CCCCC2)OC1=O [Silstatin 6 (15b), Cyclo-{Tyr-D-Hcha-D-Val-Lac-[Val-D-Hcha-D-Val-Lac]2}] | 0.32 | 0.05 | marked reduction of cancer cell growth inhibition capability | 0.09 | 0.53 | 0.12 | 0.22 |
| CC(C)C[C@H]1OC(=O)[C@H](Cc2ccc(OC(C)(C)C)cc2)NC(=O)[C@H](C)OC(=O)[C@@H](C(C)C)NC(=O)[C@@H](CC(C)C)OC(=O)[C@H](C(C)C)NC(=O)[C@H](C)OC(=O)[C@@H](C(C)C)NC(=O)[C@@H](CC(C)C)OC(=O)[C@H](C(C)C)NC(=O)[C@H](C)OC(=O)[C@@H](C(C)C)NC1=O [Silstatin 7c, Cyclo-{Tyr(tBu)-D-Hica-D-Val-Lac-[Val-D-Hica-D-Val-Lac]2}] | 0.029 | 0.0025 |  | 0.0048 | 0.03 | 0.0042 | 0.011 |
| CC(C)[C@@H]1NC(=O)[C@H](C)OC(=O)[C@@H](C(C)C)NC(=O)[C@@H](CC2CCCCC2)OC(=O)[C@H]([C@@H](C)OC(C)(C)C)NC(=O)[C@H](C)OC(=O)[C@@H](C(C)C)NC(=O)[C@@H](CC2CCCCC2)OC(=O)[C@H](C(C)C)NC(=O)[C@H](C)OC(=O)[C@@H](C(C)C)NC(=O)[C@@H](CC2CCCCC2)OC1=O [Silstatin 14b, Cyclo-{Thr(tBu)-D-Hcha-D-Val-Lac-[Val-D-Hcha-D-Val-Lac]2}] | 0.32 | 0.075 |  | 0.08 | 0.18 | 0.075 | 0.12 |
| CC(C)[C@@H]1NC(=O)[C@H](C)OC(=O)[C@@H](C(C)C)NC(=O)[C@@H](CC2CCCCC2)OC(=O)[C@H](C(C)C)NC(=O)[C@H](C)OC(=O)[C@@H](C(C)C)NC(=O)[C@@H](CC2CCCCC2)OC(=O)[C@H](Cc2ccc(OC(C)(C)C)cc2)NC(=O)[C@H](C)OC(=O)[C@@H](C(C)C)NC(=O)[C@@H](CC2CCCCC2)OC1=O [Silstatin 14c, Cyclo-{Tyr(tBu)-D-Hcha-D-Val-Lac-[Val-D-Hcha-D-Val-Lac]2}] | >1 | >1 |  | >1 | >1 | >1 | >1 |
| CC(C)C[C@H]1OC(=O)[C@H](C(C)C)NC(=O)[C@H](C)OC(=O)[C@@H](C(C)C)NC(=O)[C@@H](CC2CCCCC2)OC(=O)[C@H]([C@@H](C)OC(C)(C)C)NC(=O)[C@H](C)OC(=O)[C@@H](C(C)C)NC(=O)[C@@H](CC(C)C)OC(=O)[C@H](C(C)C)NC(=O)[C@H](C)OC(=O)[C@@H](C(C)C)NC1=O [Silstatin 17a, Cyclo-{Thr(tBu)-D-Hcha-D-Val-Lac-[Val-D-Hica-D-Val-Lac]2}] | 0.009 | 0.004 |  | 0.0024 | 0.023 | 0.001 | 0.007 |
| CC(C)C[C@H]1OC(=O)[C@H](C(C)C)NC(=O)[C@H](C)OC(=O)[C@@H](C(C)C)NC(=O)[C@@H](CC(C)C)OC(=O)[C@H](C(C)C)NC(=O)[C@H](C)OC(=O)[C@@H](C(C)C)NC(=O)[C@@H](CC2CCCCC2)OC(=O)[C@H](Cc2ccc(OC(C)(C)C)cc2)NC(=O)[C@H](C)OC(=O)[C@@H](C(C)C)NC1=O [Silstatin 17b, Cyclo-{Tyr(tBu)-D-Hcha-D-Val-Lac-[Val-D-Hica-D-Val-Lac]2}] | 0.12 | 0.06 |  | 0.052 | 0.09 | 0.032 | 0.04 |
